The test system of this assay is P388 leukemia ip, CD2F1 mice, survival T/C. Kind of assay: NCI In Vivo Anticancer Drug Screen. Data for tumor model P388 Leukemia (intraperitoneal) in CD2F1 (CDF1) mice. The conditions noted are these: endpoint: median survival time, higher = longer survival. A digest of the protocol: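 Mice carrying the transplanted tumor received test compound or vehicle. Survival was recorded in each group, and the value is the treated-group measurement divided by that of the vehicle-treated control group.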

[1] abbreviates: dose: 12.5 mg/kg/injection, schedule: Q01DX009 (ip), vehicle: saline.
Where [2] appears, read: dose: 25.0 mg/kg/injection, schedule: Q01DX009 (ip), vehicle: saline.
Setting [3] is: dose: 200.0 mg/kg/injection, schedule: Q01DX009 (ip), vehicle: saline.
The mark [4] stands for this setting: dose: 50.0 mg/kg/injection, schedule: Q01DX005 (ip), vehicle: saline with Tween-80.
[5] abbreviates: dose: 100.0 mg/kg/injection, schedule: Q01DX005 (ip), vehicle: saline with Tween-80.
[6] abbreviates: dose: 200.0 mg/kg/injection, schedule: Q01DX005 (ip), vehicle: saline with Tween-80.
[7] abbreviates: dose: 50.0 mg/kg/injection, schedule: Q01DX005 (ip), vehicle: Klucel (hydroxypropylcellulose) (HPC).
The mark [8] stands for this setting: dose: 100.0 mg/kg/injection, schedule: Q01DX005 (ip), vehicle: Klucel (hydroxypropylcellulose) (HPC).
Setting [9] is: dose: 200.0 mg/kg/injection, schedule: Q01DX005 (ip), vehicle: Klucel (hydroxypropylcellulose) (HPC).
Setting [10] is: dose: 50.0 mg/kg/injection, schedule: Q01DX009 (ip), vehicle: saline.
Where [11] appears, read: dose: 100.0 mg/kg/injection, schedule: Q01DX009 (ip), vehicle: saline.
[12] abbreviates: dose: 60.0 mg/kg/injection, schedule: Q01DX005 (ip), vehicle: saline with Tween-80.
The mark [13] stands for this setting: dose: 120.0 mg/kg/injection, schedule: Q01DX005 (ip), vehicle: saline with Tween-80.
The mark [14] stands for this setting: dose: 240.0 mg/kg/injection, schedule: Q01DX005 (ip), vehicle: saline with Tween-80.

Where “and” joins values, the source holds several entries; their conditions need not be identical. Identical values can stand only once. Inconclusive results and toxic doses are left out.

Turning to `CCCCC(NC(=O)CC)C(=O)O` (centres undefined), the T/C runs as follows: (dose: 6.25 mg/kg/injection, schedule: Q01DX009 (ip), vehicle: saline) 107 % of control; under setting [1], 94 % of control; under setting [2], 98 % of control; under setting [3], 100 % of control.
With `CC(C)CC(NC(=O)C(C)N)C(=O)OC(C)(C)C` (centres undefined), the T/C is 101 % of control under setting [4], 102 % of control under setting [5] and 96 % of control under setting [6].
With `CN1CCc2cc3c4cc2C1Cc1ccc(O)c(c1)Oc1ccc(cc1)CC1c2c(cc(O)c(c2O4)O3)CCN1C` (centres undefined), the T/C by setting is: (dose: 0.25 mg/kg/injection, schedule: Q01DX009 (ip), vehicle: saline) 103 % of control; (dose: 0.5 mg/kg/injection, schedule: Q01DX009 (ip), vehicle: saline) 110 % of control; (dose: 1.0 mg/kg/injection, schedule: Q01DX009 (ip), vehicle: saline) 103 % of control; (dose: 2.0 mg/kg/injection, schedule: Q01DX009 (ip), vehicle: saline) 100 % of control; (dose: 4.0 mg/kg/injection, schedule: Q01DX009 (ip), vehicle: saline) 94 % of control.
On to `N=C(N)Sc1ccc([N+](=O)[O-])cc1Cl`, for which the T/C was 104 % of control under setting [7], 104 % of control under setting [8] and 101 % of control under setting [9].
As to `O=c1[nH]c2cc([N+](=O)[O-])ccc2nc1/C=C(\O)c1ccccc1`, the T/C was 100 % of control (dose: 60.0 mg/kg/injection, schedule: Q01DX005 (ip), vehicle: Klucel + Tween-80); 92 % of control (dose: 120.0 mg/kg/injection, schedule: Q01DX005 (ip), vehicle: Klucel + Tween-80); 92 % of control (dose: 240.0 mg/kg/injection, schedule: Q01DX005 (ip), vehicle: Klucel + Tween-80).
Regarding `CCOc1ccc(N=Nc2c(O)n(-c3ccccc3Cl)c(=S)n(-c3ccc(OC)cc3)c2=O)cc1`, the T/C (dose: 50.0 mg/kg/injection, schedule: Q01DX001 (ip), vehicle: Klucel (hydroxypropylcellulose) (HPC)) is 97 % of control; the T/C (dose: 100.0 mg/kg/injection, schedule: Q01DX001 (ip), vehicle: Klucel (hydroxypropylcellulose) (HPC)) was 102 % of control; the T/C (dose: 200.0 mg/kg/injection, schedule: Q01DX001 (ip), vehicle: Klucel (hydroxypropylcellulose) (HPC)) is 97 % of control.
Regarding `CCOC(=O)Nc1cc(Cl)c2[nH]cnc2n1`, the T/C under setting [7] is 97 % of control, the T/C under setting [8] was 101 % of control and the T/C under setting [9] was 108 % of control.
Turning to `CP1(=S)CCC2=C1CCc1cc(O)ccc12` (centres undefined), the T/C reads like this: (dose: 50.0 mg/kg/injection, schedule: Q01DX009 (ip), vehicle: Klucel (hydroxypropylcellulose) (HPC)) 104 % of control; (dose: 100.0 mg/kg/injection, schedule: Q01DX009 (ip), vehicle: Klucel (hydroxypropylcellulose) (HPC)) 104 % of control; (dose: 200.0 mg/kg/injection, schedule: Q01DX009 (ip), vehicle: Klucel (hydroxypropylcellulose) (HPC)) 101 % of control.
Take `N#Cc1cn(C2OC(CO)C(O)C2O)c2ncnc(N)c12` (centres undefined): the T/C is, setting by setting: (dose: 0.05 mg/kg/injection, schedule: Q01DX009 (ip), vehicle: other) 124 % of control; (dose: 0.1 mg/kg/injection, schedule: Q01DX009 (ip), vehicle: other) 155 % of control; (dose: 0.13 mg/kg/injection, schedule: Q04DX003 (ip), vehicle: other) 154 % of control; (dose: 0.15 mg/kg/injection, schedule: Q04DX003 (ip), vehicle: other) 163 % of control; (dose: 0.2 mg/kg/injection, schedule: Q01DX009 (ip), vehicle: other) 120 % of control; (dose: 0.2 mg/kg/injection, schedule: Q04DX003 (ip), vehicle: other) 150 % of control. The T/C runs as follows: (dose: 0.4 mg/kg/injection, schedule: Q01DX009 (ip), vehicle: other) 95 % of control; (dose: 1.0 mg/kg/injection, schedule: Q04DX003 (ip), vehicle: saline with Tween-80) 165 % of control; (dose: 2.0 mg/kg/injection, schedule: Q04DX003 (ip), vehicle: saline with Tween-80) 150 % of control; (dose: 4.0 mg/kg/injection, schedule: Q04DX003 (ip), vehicle: saline with Tween-80) 95 % of control; (dose: 29.6 micrograms/kg/injection, schedule: Q04DX003 (ip), vehicle: other) 110 % of control; (dose: 44.0 micrograms/kg/injection, schedule: Q04DX003 (ip), vehicle: other) 120 % of control. Also, the T/C (dose: 66.0 micrograms/kg/injection, schedule: Q04DX003 (ip), vehicle: other) is 153 % of control.
In the case of `COc1ccc2c(c1)c(CC(N)=O)c(C)n2C(=O)c1ccc(Cl)nc1`, the T/C (dose: 52.75 mg/kg/injection, schedule: Q01DX005 (ip), vehicle: saline with Tween-80) is 94 % of control and the T/C (dose: 105.5 mg/kg/injection, schedule: Q01DX005 (ip), vehicle: saline with Tween-80) was 92 % of control.
Take `O=CCCOC1CCCCO1` (centres undefined): the T/C reads like this: (dose: 50.0 mg/kg/injection, schedule: Q01DX009 (ip), vehicle: other) 116 % of control; (dose: 100.0 mg/kg/injection, schedule: Q01DX009 (ip), vehicle: other) 110 % of control; (dose: 200.0 mg/kg/injection, schedule: Q01DX009 (ip), vehicle: other) 104 % of control.
`CCOC(=O)C(C(=O)OCC)C(C)(C)C`: the T/C is 100 % of control under setting [10]; 102 % of control under setting [11]; 109 % of control under setting [3]; 109 % of control (dose: 400.0 mg/kg/injection, schedule: Q01DX009 (ip), vehicle: saline).
As to `S=c1[nH]c(=S)c2[nH]cnc2[nH]1`, the T/C is, setting by setting: under setting [4], 102 % of control; under setting [5], 100 % of control; under setting [6], 100 % of control.
In the case of `OC(Nc1nccs1)C(F)(F)F` (centres undefined), the T/C under setting [1] is 99 % of control; the T/C under setting [2] is 100 % of control; the T/C (dose: 50.0 mg/kg/injection, schedule: Q01DX009 (ip), vehicle: saline with Tween-80) is 95 % of control; the T/C under setting [10] was 101 % of control.
For `COC(=O)c1nn2c(=O)n(C(C)=O)c3ccccc3c2c1C(=O)OC`, the T/C is 108 % of control under setting [12], 109 % of control under setting [13] and 108 % of control under setting [14].
As for `c1ccc2c(c1)[nH]c1cc3c(cc12)CCCCC3`, the T/C by setting is: under setting [12], 107 % of control; under setting [13], 91 % of control; under setting [14], 97 % of control.
Consider `CC[C@@]1(O)C[C@H]2CN(CCc3c([nH]c4ccccc34)[C@@](C(=O)OC)(c3cc4c(cc3OC)N[C@H]3[C@@](O)(C(=O)OC)[C@H](OC(C)=O)[C@]5(CC)C=CCN6CC[C@]43[C@@H]65)C2)C1`, for which the T/C (dose: 16.0 mg/kg/injection, schedule: Q01DX001 (ip), vehicle: water) was 153 % of control and 164 % of control.
For `O=C1c2cccc(O)c2C(=O)c2c(OC3OC(CO)C(OC4OC(CO)C(O)C(O)C4O)C(O)C3O)cccc21` (centres undefined), the T/C by setting is: (dose: 12.5 mg/kg/injection, schedule: Q04DX003 (ip), vehicle: saline with Tween-80) 100 % of control; (dose: 25.0 mg/kg/injection, schedule: Q04DX003 (ip), vehicle: saline with Tween-80) 100 % of control; under setting [10], 104 % of control; (dose: 50.0 mg/kg/injection, schedule: Q04DX003 (ip), vehicle: saline with Tween-80) 99 % of control; under setting [11], 107 % of control; under setting [3], 102 % of control.

Source of the values: PubChem BioAssay AID330 (DTP/NCI, 2004).
